Laboratory results as given in patent US10393744B2, “Peptides for targeting colorectal cancer, and medical use thereof” (UNIVERSITY OF ULSAN FOUNDATION FOR INDUSTRY COOPERATION, priority 2014, dated 2019).

Experiments:
[1] = tested on: Radio-sensitive colorectal cancer tissue of patient (case C87); assay: In vivo/ex vivo imaging and phage elution of Cy5.5-labeled peptide-expressing phages in mouse model transplanted with patient's colorectal cancer tissue (Example 4); design: species or system nude mouse; conditions: for in vivo ROI: Cy5.5 fluorescence total flux standardized to Cy5.5 dye control; for pfu/mg (concentration of eluted phages relative to weight of cancer tissue) / ex vivo ROI: extracted cancer tissue; for ex vivo ROI: standardized to Cy5.5 dye control
Text: (§1) Then, the distributed cancer tissue was kept in a specific preservative solution and transferred directly to an animal chamber, so as to maintain a state in which the cancer tissue was not separated from a patient yet. After an NOD/SCID mouse was anesthetized via intraperitoneal injection of anesthetics, the cancer tissue was cut into pieces each having a size of 3×3 mm. Next, each of both flanks of the NOD/SCID mouse was transplanted with a piece of the cut cancer tissues, and sutured. The NOD/SCID mouse was then recovered on a heating pad for about 2 hours (conditions of the preservative solution: HBSS containing 100 IU/ml penicillin, 100 μg/ml streptomycin, 100 μg/ml gentamicin, 2.5 μg/ml amphotericin B, and 5% fetal bovine serum). After completion of the transplantation, the NOD/SCID mouse was raised until tumors were formed. Meanwhile, the formation and growth of tumors were checked at least once a week. When the transplanted cancer tissues grew to a size of at least 500 mm^3, an extraction process was performed thereon. Then, the extracted cancer tissues were each cut into pieces each having a size of 3×3 mm for subculturing. A nude mouse was anesthetized via intraperitoneal injection of anesthetics, and a piece of the cut cancer tissues was transplanted subcutaneously on the right thigh of the nude mouse. A transplantation site was changed from the flank to the thigh so that irradiation can be locally done without affecting other organs during irradiation. That is, a finally used mouse model transplanted with a patient's colorectal cancer tissue in the present invention was a mouse model established in a way that a cancer tissue that underwent subculturing four times was re-transplanted to form a cancer tissue. When the size of the cancer tissue was increased to about 250 mm^3, only the cancer tissue was irradiated with 2 grays (Gy) of radiation. After having recovery time for no longer than 24 hours, in vivo peptide screening was performed. Here, a non-irradiated population, which is a control group, was also subjected to screening in a separate manner.
(§2) In detail, regarding in vivo imaging verification, the peptide-expressing phage was amplified, and a process of linking a fluorescent probe (Cy5.5) was performed. In particular, 1 μg/μl of N-hydroxysuccinimide esters of Cy5.5 (Amersham) was added to 1 mL of bicarbonate buffer (pH 8.3) having the phage concentration of 10^12 plaque forming units (pfu), and then, in a condition where a dark environment was maintained, a phage-surface protein was linked to the Cy5.5 fluorescent probe at room temperature for 3 hours. That is, amine groups of the phage-surface protein were chemically linked to N-hydroxysuccinimide esters of the Cy5.5 fluorescent probe via a covalent bond. The peptide-expressing phages to which the Cy5.5 fluorescent probe was linked were each obtained by precipitation with 170 μl of 20% (w/v) PEG 8000/2.5 M NaCl solution and purification. To determine a proportion of the Cy5.5 fluorescent probe linked to each of the finally obtained phage samples, an IVIS spectrum imaging system (Xenogen) was used for measurement, and region of interest (ROI) values were determined using the software program of a corresponding device.
(§3) In addition, on the last day of the in vivo imaging, the cancer tissues were each extracted, to thereby obtain ex vivo images thereof.

[2] = tested on: Radio-resistant colorectal cancer tissue of patient (case C65); assay: as above; design: species or system nude mouse; conditions: for in vivo ROI: Cy5.5 fluorescence total flux standardized to Cy5.5 dye control; for pfu/mg (concentration of eluted phages relative to weight of cancer tissue) / ex vivo ROI: extracted cancer tissue; for ex vivo ROI: standardized to Cy5.5 dye control
Text: as §1, §2, §3

[3] = case C87, non-irradiated population
[4] = case C65, non-irradiated population
[5] = case C65, irradiated population (2 Gy)
[6] = case C87, irradiated population (2 Gy)

Substance | in vivo ROI [1, 3] | pfu/mg (concentration of eluted phages relative to weight of cancer tissue) [1, 3] | ex vivo ROI [1, 3] | in vivo ROI [2, 4] | ex vivo ROI [2, 4] | further results
YVSKNNS [E17] | 1.66 | 204.00 pfu/mg | 1.29 | – | – | –
DVSGNW [A8] | – | – | – | 2.99 | 1.57 | pfu/mg (concentration of eluted phages relative to weight of cancer tissue) [2, 4]: 8.56 pfu/mg
Cy5.5 [reference compound] | 1.00 | – | 1.00 | 1.00 | 1.00 | in vivo ROI [2, 5]: 1.00; ex vivo ROI [2, 5]: 1.00; in vivo ROI [1, 6]: 1.00; ex vivo ROI [1, 6]: 1.00
TAFSLGK [E6] | 0.78 | 4.24 pfu/mg | 0.77 | – | – | –
STMNGKV [B1] | – | – | – | – | – | in vivo ROI [2, 5]: 1.52; pfu/mg (concentration of eluted phages relative to weight of cancer tissue) [2, 5]: 16.67 pfu/mg; ex vivo ROI [2, 5]: 1.48
NGNSNTL [F9] | – | – | – | – | – | in vivo ROI [1, 6]: 1.77; pfu/mg (concentration of eluted phages relative to weight of cancer tissue) [1, 6]: 95.24 pfu/mg; ex vivo ROI [1, 6]: 4.45
QQTKNYY [E7] | 2.02 | 58.32 pfu/mg | 1.38 | – | – | –
SNVYDHN [A3] | – | – | – | 1.62 | 0.67 | pfu/mg (concentration of eluted phages relative to weight of cancer tissue) [2, 4]: 34.8 pfu/mg
GQSGARF [F8] | – | – | – | – | – | in vivo ROI [1, 6]: 1.18; pfu/mg (concentration of eluted phages relative to weight of cancer tissue) [1, 6]: 6.10 pfu/mg; ex vivo ROI [1, 6]: 1.92
MNFIQKN [E11] | 1.05 | 4.43 pfu/mg | 0.34 | – | – | –
LQPKASQ [A6] | – | – | – | 2.75 | 1.47 | pfu/mg (concentration of eluted phages relative to weight of cancer tissue) [2, 4]: 15.4 pfu/mg
DETSGQI [E12] | 1.24 | 5.56 pfu/mg | 1.07 | – | – | –
ASKSTHD [A7] | – | – | – | 1.80 | 1.08 | pfu/mg (concentration of eluted phages relative to weight of cancer tissue) [2, 4]: 27.14 pfu/mg
TVRTSAV [E9] | 1.27 | 86.40 pfu/mg | 1.20 | – | – | –
GGNSNQR [E5] | 0.92 | 15.96 pfu/mg | 0.76 | – | – | –
SWGDRIL [A5] | – | – | – | 2.16 | 1.52 | pfu/mg (concentration of eluted phages relative to weight of cancer tissue) [2, 4]: 51.38 pfu/mg
GYSSFNR [B6] | 1.12 | 3.96 pfu/mg | 0.62 | – | – | in vivo ROI [2, 5]: 3.03; pfu/mg (concentration of eluted phages relative to weight of cancer tissue) [2, 5]: 211.76 pfu/mg; ex vivo ROI [2, 5]: 2.06
AFKSPSG [E14] | 0.70 | 2.89 pfu/mg | 0.55 | – | – | –
TVRSSAE [B3] | – | – | – | – | – | in vivo ROI [2, 5]: 2.38; pfu/mg (concentration of eluted phages relative to weight of cancer tissue) [2, 5]: 195.40 pfu/mg; ex vivo ROI [2, 5]: 1.63
KISLPHN [E13] | 1.50 | 1.22 pfu/mg | 0.93 | – | – | –

Substance | in vivo ROI [1, 3] | pfu/mg (concentration of eluted phages relative to weight of cancer tissue) [1, 3] | ex vivo ROI [1, 3] | in vivo ROI [2, 4] | ex vivo ROI [2, 4] | further results
NTWMKSK [A11] | – | – | – | 1.93 | 0.95 | pfu/mg (concentration of eluted phages relative to weight of cancer tissue) [2, 4]: 6.71 pfu/mg
KLTQMM [F1] | – | – | – | – | – | in vivo ROI [1, 6]: 1.63; pfu/mg (concentration of eluted phages relative to weight of cancer tissue) [1, 6]: 6.73 pfu/mg; ex vivo ROI [1, 6]: 2.39
NTGSPYE [A2, 7-amino-acid loop peptide expressed on M13 phage, tested as Cy5.5-labeled phage] | 1.13 | 1.55 pfu/mg | 0.77 | 2.04 | 1.61 | pfu/mg (concentration of eluted phages relative to weight of cancer tissue) [2, 4]: 181.48 pfu/mg; in vivo ROI [1, 6]: 1.15; pfu/mg (concentration of eluted phages relative to weight of cancer tissue) [1, 6]: 4.75 pfu/mg; ex vivo ROI [1, 6]: 2.64
LKLGEKW [B7] | – | – | – | – | – | in vivo ROI [2, 5]: 1.72; pfu/mg (concentration of eluted phages relative to weight of cancer tissue) [2, 5]: 3.45 pfu/mg; ex vivo ROI [2, 5]: 0.62; in vivo ROI [1, 6]: 1.00; pfu/mg (concentration of eluted phages relative to weight of cancer tissue) [1, 6]: 1.90 pfu/mg; ex vivo ROI [1, 6]: 2.92
VPSQKSK [B4] | – | – | – | – | – | in vivo ROI [2, 5]: 2.12; pfu/mg (concentration of eluted phages relative to weight of cancer tissue) [2, 5]: 20.62 pfu/mg; ex vivo ROI [2, 5]: 1.36
LTGSVNK [E10] | 1.19 | 2.25 pfu/mg | 1.00 | – | – | –
DNSKLVE [F4] | – | – | – | – | – | in vivo ROI [1, 6]: 1.59; pfu/mg (concentration of eluted phages relative to weight of cancer tissue) [1, 6]: 69.18 pfu/mg; ex vivo ROI [1, 6]: 3.11
LKTSGTY [E15] | 0.77 | 6.13 pfu/mg | 0.47 | – | – | –
TNPYPLD [F10] | – | – | – | – | – | in vivo ROI [1, 6]: 1.91; pfu/mg (concentration of eluted phages relative to weight of cancer tissue) [1, 6]: 7.86 pfu/mg; ex vivo ROI [1, 6]: 1.74
HKTEHRS [E18] | 0.69 | 4.15 pfu/mg | 0.21 | – | – | –
LGSVGRD [F7] | – | – | – | – | – | in vivo ROI [1, 6]: 1.61; pfu/mg (concentration of eluted phages relative to weight of cancer tissue) [1, 6]: 141.04 pfu/mg; ex vivo ROI [1, 6]: 3.97
AIKNTKS [E8] | 0.90 | 15.00 pfu/mg | 0.49 | – | – | –
SHMEYPR [A1, 7-amino-acid loop peptide expressed on M13 phage, tested as Cy5.5-labeled phage] | 1.68 | 74.12 pfu/mg | 1.72 | 1.77 | 1.27 | in vivo ROI [2, 5]: 2.27; pfu/mg (concentration of eluted phages relative to weight of cancer tissue) [2, 5]: 230 pfu/mg; ex vivo ROI [2, 5]: 1.89; pfu/mg (concentration of eluted phages relative to weight of cancer tissue) [2, 4]: 136.36 pfu/mg
RSTGSSC [E16] | 0.50 | 2.14 pfu/mg | 0.24 | – | – | –
VQMPAHS [E4] | 0.84 | 5.00 pfu/mg | 0.94 | – | – | –
DLLHRGA [A9] | – | – | – | 2.35 | 0.56 | pfu/mg (concentration of eluted phages relative to weight of cancer tissue) [2, 4]: 54.17 pfu/mg
STEHTRS [A4] | – | – | – | 3.20 | 1.83 | pfu/mg (concentration of eluted phages relative to weight of cancer tissue) [2, 4]: 264.86 pfu/mg
SFFPFST [F3] | – | – | – | – | – | in vivo ROI [1, 6]: 1.07; pfu/mg (concentration of eluted phages relative to weight of cancer tissue) [1, 6]: 22.31 pfu/mg; ex vivo ROI [1, 6]: 2.64
QLWQKEQ [F5] | – | – | – | – | – | in vivo ROI [1, 6]: 1.63; pfu/mg (concentration of eluted phages relative to weight of cancer tissue) [1, 6]: 144.55 pfu/mg; ex vivo ROI [1, 6]: 3.72
MARYMSA [A10] | – | – | – | 2.26 | 1.58 | pfu/mg (concentration of eluted phages relative to weight of cancer tissue) [2, 4]: 183.16 pfu/mg
